{"source": "patent US20070004680A1", "about": "“Compositions and methods for modulating gated ion channels” (PainCeptor Pharma Corporation, priority 2004, published 2007)", "target": "T1, ASIC3 (Rattus norvegicus, UniProt O35240)", "T1 construct": "expressed in transfected cells", "T1 sequence (O35240 1-533)": "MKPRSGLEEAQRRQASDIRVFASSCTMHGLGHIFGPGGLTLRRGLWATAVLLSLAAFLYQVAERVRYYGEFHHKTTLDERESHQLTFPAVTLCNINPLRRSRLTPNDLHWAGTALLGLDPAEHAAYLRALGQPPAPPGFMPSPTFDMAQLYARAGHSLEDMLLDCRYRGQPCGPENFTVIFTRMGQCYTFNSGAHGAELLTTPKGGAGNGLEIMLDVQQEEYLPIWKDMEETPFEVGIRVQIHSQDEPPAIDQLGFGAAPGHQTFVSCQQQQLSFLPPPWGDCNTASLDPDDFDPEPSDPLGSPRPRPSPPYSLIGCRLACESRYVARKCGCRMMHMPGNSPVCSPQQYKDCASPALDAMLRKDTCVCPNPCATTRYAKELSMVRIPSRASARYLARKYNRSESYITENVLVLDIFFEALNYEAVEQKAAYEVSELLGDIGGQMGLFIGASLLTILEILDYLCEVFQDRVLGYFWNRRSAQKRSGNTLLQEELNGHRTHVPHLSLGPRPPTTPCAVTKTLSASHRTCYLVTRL", "assay": "whole cell patch clamp electrophysiology, ASIC3", "format": "cell-based", "protocol": "Another example of an in vitro assessment method consists of using mammalian heterologous expression systems, which are known to the skilled in the art, and include a variety of mammalian cell lines such as COS, HEK, e.g., HEK293and/or CHO, cells. Cell lines are transfected with gated ion channel(s) and used to perform electrophysiology as follows:\nAll experiments are performed at room temperature (20-25° C.) in voltage clamp using conventional whole cell patch clamp methods (Neher, E., et al. (1978) Pfluegers Arch 375:219-228).\nThe amplifier used is the EPC-9 (HEKA-electronics, Lambrect, Germany) run by a Macintosh G3 computer via an ITC-16 interface. Experimental conditions are set with the Pulse-software accompanying the amplifier. Data is low pass filtered and sampled directly to hard-disk at a rate of 3 times the cut-off frequency.\nPipettes are pulled from borosilicate glass using a horizontal electrode puller (Zeitz-lnstrumente, Augsburg, Germany). The pipette resistances are 2-3 MOhms in the salt solutions used in these experiments. The pipette electrode is a chloridized silver wire, and the reference is a silver chloride pellet electrode (In Vivo Metric, Healdsburg, USA) fixed to the experimental chamber. The electrodes are zeroed with the open pipette in the bath just prior to sealing.\nCoverslips with the cells are transferred to a 15 μl experimental chamber mounted on the stage of an inverted microscope (IMT-2, Olympus) supplied with Nomarski optics. Cells are continuously superfused with extracellular saline at a rate of 2.5 ml/min. After giga-seal formation, the whole cell configuration is attained by suction. The cells are held at a holding voltage of −60 mV and at the start of each experiment the current is continuously measured for 45 s to ensure a stable baseline. Solutions of low pH (<7) are delivered to the chamber through a custom-made gravity-driven flowpipe, the tip of which is placed approximately 50 μm from the cell. Application is triggered when the tubing connected to the flowpipe is compressed by a valve controlled by the Pulse-software. Initially, low pH (in general, pH 6.5) is applied for 1 s every 45 s. The sample interval during application is 550 μs. After stable responses are obtained, the extracellular saline as well as the low-pH solution are switched to solutions containing the compound to be tested. The compound is present until responses of a repeatable amplitude are achieved. Current amplitudes are measured at the peak of the responses, and effect of the compounds is calculated as the amplitude at compound equilibrium divided by the amplitude of the current evoked by the pulse just before the compound was included. […]", "note": "pIC50: −log10 of the molar value."}
{"compound": "C=CC1CN2CCC1CC2[C@@H](OC(=O)CCC1CCCC1)c1ccnc2ccccc12", "note": "(some centres unmarked) [Compound A]", "values": [{"measurement": "Fraction of Control, ASIC3 - pH Dependency", "setting": "10 μM compound, pH 5.0", "value": "greater than .75"}, {"measurement": "pIC50", "setting": "patch clamp, pH 6.5", "value": "5.22 to 5.40"}]}
